From ChEMBL document CHEMBL5576066, “Synthesis and evaluation of 3-hydroxyquinolin-2(1H)-one derivatives as inhibitors of tyrosinase” (Bioorg Med Chem Lett, 2024)

target: T1, Mushroom tyrosinase (Agaricus bisporus, UniProt O42713+Q00024+C7FF04+C7FF05); test: Competitive inhibition of mushroom tyrosinase using L-DOPA as substrate assessed as inhibition constant by Lineweaver-Burk plots analysis; type: protein assay

| Ki [µM] | SMILES |
| --- | --- |
| 1.41 | Cc1ccc2[nH]c(=O)c(O)cc2c1 |

target: T2, Tyrosinase (Homo sapiens, UniProt P14679); test: Inhibition of human tyrosinase
T2 sequence (P14679 whole entry): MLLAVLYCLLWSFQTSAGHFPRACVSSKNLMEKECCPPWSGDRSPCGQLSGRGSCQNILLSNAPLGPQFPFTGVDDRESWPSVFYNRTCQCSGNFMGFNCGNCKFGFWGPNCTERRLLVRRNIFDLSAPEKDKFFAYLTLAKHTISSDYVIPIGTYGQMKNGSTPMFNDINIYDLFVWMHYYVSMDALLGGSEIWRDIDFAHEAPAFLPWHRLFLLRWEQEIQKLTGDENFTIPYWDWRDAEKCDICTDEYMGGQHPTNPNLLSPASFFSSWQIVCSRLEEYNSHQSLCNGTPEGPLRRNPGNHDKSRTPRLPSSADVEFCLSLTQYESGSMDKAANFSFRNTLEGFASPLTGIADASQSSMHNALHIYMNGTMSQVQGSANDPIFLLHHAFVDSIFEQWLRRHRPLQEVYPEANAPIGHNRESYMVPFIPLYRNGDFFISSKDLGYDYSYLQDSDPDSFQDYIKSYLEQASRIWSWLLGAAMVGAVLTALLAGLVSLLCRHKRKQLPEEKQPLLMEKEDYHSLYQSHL

| IC50 [µM] | SMILES |
| --- | --- |
| 26 | O=c1oc2ccccc2cc1O [3-HYDROXYCOUMARIN] |

target: T1, Mushroom tyrosinase; test: Inhibition of mushroom tyrosinase using L-DOPA as substrate by spectrophotometric analysis; type: protein assay

| IC50 [µM] | SMILES |
| --- | --- |
| 926 | Cc1cc(C)c2cc(O)c(=O)[nH]c2c1 |
| 43.5 | Cc1cc2cc(O)c(=O)[nH]c2cc1C |
| 2.74 | O=c1[nH]c2ccccc2cc1O |
| 3.57 | O=c1[nH]c2ccc(F)cc2cc1O |
| 173 | Cc1ccc2cc(O)c(=O)[nH]c2c1 |
| 6.11 | Cc1ccc2[nH]c(=O)c(O)cc2c1 |
| 0.13 | CC(C)C(=O)Nc1nc(-c2ccc(O)cc2O)cs1 |
| 2.49 | O=c1oc2ccccc2cc1O [3-HYDROXYCOUMARIN] |
| 92.7 | O=c1[nH]c2cccc(Cl)c2cc1O |
| 2.52 | O=c1[nH]c2ccc(Br)cc2cc1O |
